Like-named read-outs stand apart in the source and are kept apart here. Where a SMILES comes first, the peptide text is derived from it.
Assays:
HUVECs [1] = test: NO production in HUVECs; assay type: cell-based, human; conditions: 24 h; for NO level: control 34.41 ± 1.27
HUVECs [2] = test: ET-1 secretion of HUVECs; assay type: cell-based, human; conditions: 24 h; for ET-1 secretion: control 118.68 ± 0.53
Description: Skipjack tuna (K. pelamis) muscle was provided by Ningbo Today Food Co., Ltd (China). Sephadex G-25 resins and NO assay kit (Nitrate reductase approach, A012-1) were purchased from Nanjing Jiancheng Bioengineering Institute (China). ET-1 ELISA Kit (HM10108) was purchased from Shanghai Qiaodu Biotechnology Co. Ltd. (China).Trypsase (≥20,000 U/g), pepsase (≥500,000 U/g), papain (≥400,000 U/g), ACE (A6778) and N-[3-(2-Furyl) acryloyl]-Phe-Gly-Gly (FAPGG, F713) were purchased from Sigma-Aldrich (Shanghai) Trading Co., Ltd. (China). […] ACEi Peptides of (TMAP1-TMAP6) with purity higher than 98% were synthesized in Shanghai Apeptide Co. Ltd. (China).
The NO and ET-1 contents of HUVECs were determined after a 24 h treatment of ACEi peptides. […] NO and ET-1 production in treated cells were measured by employing human NO and ET-1 assay kit as manufactures’ protocol, separately.

ACE [3] = molecular target: T1, ACE (Oryctolagus cuniculus, UniProt P12822); conditions: cited from earlier work
T1 construct: purchased Sigma-Aldrich (Shanghai) Trading Co., Ltd. A6778
T1 sequence (P12822 34-1310): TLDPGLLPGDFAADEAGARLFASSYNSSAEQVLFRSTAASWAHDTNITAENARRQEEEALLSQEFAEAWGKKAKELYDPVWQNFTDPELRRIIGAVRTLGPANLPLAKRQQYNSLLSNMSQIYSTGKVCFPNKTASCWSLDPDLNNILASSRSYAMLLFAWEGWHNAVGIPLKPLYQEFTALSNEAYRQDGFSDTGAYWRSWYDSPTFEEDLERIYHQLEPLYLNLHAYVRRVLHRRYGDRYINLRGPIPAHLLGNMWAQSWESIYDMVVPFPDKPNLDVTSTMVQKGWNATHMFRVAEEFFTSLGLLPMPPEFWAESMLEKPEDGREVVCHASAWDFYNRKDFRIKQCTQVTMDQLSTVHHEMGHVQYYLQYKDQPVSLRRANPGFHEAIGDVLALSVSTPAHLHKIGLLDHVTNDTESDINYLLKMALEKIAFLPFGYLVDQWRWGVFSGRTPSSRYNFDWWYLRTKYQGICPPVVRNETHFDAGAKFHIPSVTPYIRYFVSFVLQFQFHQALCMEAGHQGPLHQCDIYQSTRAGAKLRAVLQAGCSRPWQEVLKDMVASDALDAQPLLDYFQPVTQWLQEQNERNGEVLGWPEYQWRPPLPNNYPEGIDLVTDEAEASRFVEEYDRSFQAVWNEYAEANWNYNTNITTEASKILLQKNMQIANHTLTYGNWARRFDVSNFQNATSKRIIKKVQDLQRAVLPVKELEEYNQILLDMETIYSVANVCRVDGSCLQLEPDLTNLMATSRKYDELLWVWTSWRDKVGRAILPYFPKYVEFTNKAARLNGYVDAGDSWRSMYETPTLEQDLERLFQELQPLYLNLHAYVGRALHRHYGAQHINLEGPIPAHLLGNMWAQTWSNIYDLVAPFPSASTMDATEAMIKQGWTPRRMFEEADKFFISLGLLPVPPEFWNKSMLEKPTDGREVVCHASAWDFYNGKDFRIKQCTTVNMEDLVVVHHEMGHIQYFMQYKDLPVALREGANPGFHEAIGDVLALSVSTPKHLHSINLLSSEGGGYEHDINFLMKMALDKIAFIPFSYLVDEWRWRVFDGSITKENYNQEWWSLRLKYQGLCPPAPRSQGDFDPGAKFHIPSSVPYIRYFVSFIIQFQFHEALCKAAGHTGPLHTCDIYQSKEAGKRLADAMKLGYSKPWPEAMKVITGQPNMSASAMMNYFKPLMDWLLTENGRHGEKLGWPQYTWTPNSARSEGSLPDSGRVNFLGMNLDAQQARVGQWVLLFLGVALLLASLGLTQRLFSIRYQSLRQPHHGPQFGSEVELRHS
Description: Among these peptides, ACEi peptides represent a promising alternative to synthetic drugs to control hypertension. For instance, canary seed peptides (CSP) have great potential as anti-hypertensive and anti-obesity agents due to their inhibition activity on ACE and pancreatic lipase, and their non-competitive inhibitory activity was due to their destabilization of the transition state and Zn(II) coordination in ACE [13]. […] Auwal et al. illustrated that branched aliphatic or dicarboxylic amino acids (Val, Ala, Ile, and Leu) at the N-terminus could strengthen ACEi ability of peptides. Then, Val residue at the N-terminus of TMAP2 could improve its ACEi ability. […] Therefore, Ser residue, especially its hydroxyl group, should play a vital effect in the ACEi capability of ...

ACE [4] = molecular target: T1, ACE; set-up: method as in 3 sources, ref 47 = [47]; doi:10.1016/j.lwt.2016.08.047; 47. Wang X. Chen H. Fu X. Li S. Wei J. A novel antioxidant and ACE inhibitory peptide from rice bran protein: Biochemical characterization and molecular docking study LWT-Food Sci.Technol. 2017 75 93 ||| ref 12 = [12]; PMID 31353484; doi:10.1111/jfbc.12572; 12. Fan H. Liao W. Wu J. Molecular interactions, bioavailability, and cellular mechanisms of angiotensin-converting enzyme inhibitory peptides J. Food Biochem. 2019 43 e12572 10.1111/jfbc.12572 313534 ||| ref 51 = [51]; PMID 28873590; doi:10.1016/j.foodchem.2017.06.112; 51. Abdelhedi O. Nasri R. Mora L. Jridi M. Toldra F. Nasri M. In silico analysis and molecular docking study of angiotensin I-converting enzyme inhibitory peptides from smooth-hound viscera protein hy; conditions: docking; cited from earlier work
ACE N-domain = test system: ACE N-domain; set-up: method as in PMID 33340899; conditions: docking; cited from earlier work
ACE C-domain = test system: ACE C-domain; set-up: method as in PMID 33340899; conditions: docking; cited from earlier work
[5] = molecular target: T2, angiotensin-I-converting enzyme (ACE) (UniProt P12822)
T2 sequence: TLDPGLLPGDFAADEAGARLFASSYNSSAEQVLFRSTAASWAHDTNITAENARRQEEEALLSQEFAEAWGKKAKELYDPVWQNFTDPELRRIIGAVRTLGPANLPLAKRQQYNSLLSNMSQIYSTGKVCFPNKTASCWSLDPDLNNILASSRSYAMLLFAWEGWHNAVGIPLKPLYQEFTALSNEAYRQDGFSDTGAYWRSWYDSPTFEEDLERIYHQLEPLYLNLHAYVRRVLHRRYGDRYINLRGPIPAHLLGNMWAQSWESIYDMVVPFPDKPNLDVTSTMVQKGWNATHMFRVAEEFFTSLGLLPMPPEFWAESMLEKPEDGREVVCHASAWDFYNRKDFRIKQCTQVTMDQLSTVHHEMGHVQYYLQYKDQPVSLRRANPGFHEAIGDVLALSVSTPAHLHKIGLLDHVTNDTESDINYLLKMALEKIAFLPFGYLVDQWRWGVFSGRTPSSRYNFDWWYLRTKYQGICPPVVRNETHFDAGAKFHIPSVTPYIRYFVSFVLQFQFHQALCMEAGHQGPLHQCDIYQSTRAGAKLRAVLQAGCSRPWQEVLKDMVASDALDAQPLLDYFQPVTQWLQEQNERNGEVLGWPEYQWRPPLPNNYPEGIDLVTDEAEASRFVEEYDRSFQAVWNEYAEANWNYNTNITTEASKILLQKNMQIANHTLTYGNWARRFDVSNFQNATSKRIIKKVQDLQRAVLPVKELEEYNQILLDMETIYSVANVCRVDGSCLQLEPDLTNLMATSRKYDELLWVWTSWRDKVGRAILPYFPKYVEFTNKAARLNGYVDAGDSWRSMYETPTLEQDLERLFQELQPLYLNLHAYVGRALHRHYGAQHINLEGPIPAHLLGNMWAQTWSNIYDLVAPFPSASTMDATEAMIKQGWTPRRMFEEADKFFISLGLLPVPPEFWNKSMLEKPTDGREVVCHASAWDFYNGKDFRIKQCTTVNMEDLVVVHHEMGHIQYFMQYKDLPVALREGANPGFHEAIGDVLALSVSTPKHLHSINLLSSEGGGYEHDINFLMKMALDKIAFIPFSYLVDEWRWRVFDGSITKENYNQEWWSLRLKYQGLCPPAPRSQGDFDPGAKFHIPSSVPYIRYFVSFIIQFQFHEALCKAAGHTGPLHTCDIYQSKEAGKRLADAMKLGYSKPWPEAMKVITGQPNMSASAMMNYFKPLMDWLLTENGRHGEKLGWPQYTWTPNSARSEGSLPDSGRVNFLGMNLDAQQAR

Work on `C[C@H](CS)C(=O)N1CCC[C@H]1C(=O)O` [Cap, captopril] yielded an NO level (HUVECs [1]; Cap positive control (1 μM per method), p < 0.001) of 65.96 ± 1.83 μmol/gprot and an ET-1 secretion (HUVECs [2]; 0.5 μM Cap, p < 0.001) of 84.16 ± 1.18 pg/mL.

`NC[C@H](O)c1ccc(O)c(O)c1` [NE, norepinephrine] gave an NO level (HUVECs [1]; NE 0.5 μM, p < 0.001) of 24.25 ± 0.63 μmol/gprot and an ET-1 secretion (HUVECs [2]; NE 0.5 μM, p < 0.01) of 140.23 ± 5.81 pg/mL.

For `N[C@@H](CO)C(=O)N1CCC[C@H]1C(=O)O` [TMAP1, Ser-Pro] (H-Ser-Pro-OH), the “reversal of NE-reduced NO content” value (HUVECs [1]; 200 μM peptide with NE (0.5 μM), p < 0.001 vs NE) was “partially offset”, the NO level (HUVECs [1]; 400 μM, p < 0.001) was 57.25 ± 2.31 μmol/gprot and the “NO level vs control group” value (HUVECs [1]; 100, 200 and 400 μM, p < 0.001) was “significantly increased”. For the same molecule, the “ET-1 secretion with NE” value (HUVECs [2]; 200 μM peptide with NE (0.5 μM), NE alone 140.23 ± 5.81, p < 0.01) was 114.08 ± 5.82 pg/mL, the ET-1 secretion (HUVECs [2]; 400 μM) was 94.86 ± 0.39 pg/mL and the “ET-1 secretion vs control group” value (HUVECs [2]; tested concentrations (100–400 μM), p < 0.001 or p < 0.01) was “decreased”.

In the case of “AGPPGSDGQPGA [ACEi peptide from lizardfish]”, the IC50 (ACE [3]; lizardfish peptide) is given as 544 µg/mL.

In the case of “ALPMHIR [larger peptide composed of 7–11 amino acid residues]”, the “interaction with ACE channel / active site” value (ACE [4]) is given as “showed low interaction scores”.

For “AVVPPSDKM [larger peptide composed of 7–11 amino acid residues]”, the “interaction with ACE channel / active site” value (ACE [4]) is given as “showed low interaction scores”.

In the case of EHPVL [ACEi peptide from stone fish], the IC50 (ACE [3]; stone fish peptides) is listed as 1680 µM.

In the case of EVLIQ [ACEi peptide from stone fish], the IC50 (ACE [3]; stone fish peptides) is given as 1440 µM.

For “GPAGPRGPAG [larger peptide composed of 7–11 amino acid residues]”, the “interaction with ACE channel / active site” value (ACE [4]) is given as “showed low interaction scores”.

For “HWTTQR [ACEi peptide from seaweed pipefish]”, the IC50 (ACE [3]; seaweed pipefish peptide) is listed as 1440 µM.

For LAPPTM [ACEi peptide from stone fish], the IC50 (ACE [3]; stone fish peptides) is given as 1310 µM.

In the case of LGPLGHQ [ACEi peptide from skate], the IC50 (ACE [3]; skate peptides) is given as 4.22 µM.

In the case of LVLL [literature peptide docked to ACE], the N-domain affinity (ACE N-domain) is given as -7.5 kcal/mol and the C-domain affinity (ACE C-domain) is given as -8.6 kcal/mol.

For MVGSAPGVL [ACEi peptide from skate], the IC50 (ACE [3]; skate peptides) is listed as 3.09 µM.

For Phe-Glu-Met (FEM) (peptide), the IC50 of ACE inhibitory (ACEi) activity; enzyme assay with FAPGG as substrate, Tris-HCl 50 mM pH 8.3, 300 mM NaCl, 37 °C, product measured by HPLC [5] was 2.18 mg/mL.

In the case of SPRCR [ACEi peptide with Ser residue], the IC50 (ACE [3]) is given as 41 µM.

In the case of Ser-Pro (SP) (peptide), the IC50 of ACE inhibitory (ACEi) activity; enzyme assay with FAPGG as substrate, Tris-HCl 50 mM pH 8.3, 300 mM NaCl, 37 °C, product measured by HPLC [5] is reported as 0.06 mg/mL.

For “TTMYPGIA [larger peptide composed of 7–11 amino acid residues]”, the “interaction with ACE channel / active site” value (ACE [4]) is given as “showed low interaction scores”.

Tyr-Glu (YE) (peptide) gave an IC50 of ACE inhibitory (ACEi) activity; enzyme assay with FAPGG as substrate, Tris-HCl 50 mM pH 8.3, 300 mM NaCl, 37 °C, product measured by HPLC [5] of 0.8 mg/mL.

In the case of “VKPLPQSG [larger peptide composed of 7–11 amino acid residues]”, the “interaction with ACE channel / active site” value (ACE [4]) is listed as “showed low interaction scores”.

In the case of VSQLTR [ACEi peptide with Ser residue], the IC50 (ACE [3]) is listed as 105 µM.

In the case of YVVF [literature peptide docked to ACE], the N-domain affinity (ACE N-domain) is given as -8.8 kcal/mol and the C-domain affinity (ACE C-domain) is given as -9.8 kcal/mol.

Work on VHGVV [Val-His-Gly-Val-Val (VHGVV)] yielded an IC50 of ACE inhibitory (ACEi) activity; enzyme assay with FAPGG as substrate, Tris-HCl 50 mM pH 8.3, 300 mM NaCl, 37 °C, product measured by HPLC [5] of 0.9 mg/mL.

FWRV [Phe-Trp-Arg-Val (FWRV)] gave an IC50 of ACE inhibitory (ACEi) activity; enzyme assay with FAPGG as substrate, Tris-HCl 50 mM pH 8.3, 300 mM NaCl, 37 °C, product measured by HPLC [5] of 0.76 mg/mL.

Molecule VDRYF [Val-Asp-Arg-Tyr-Phe (VDRYF)] has an IC50 of ACE inhibitory (ACEi) activity; enzyme assay with FAPGG as substrate, Tris-HCl 50 mM pH 8.3, 300 mM NaCl, 37 °C, product measured by HPLC [5] of 0.28 mg/mL.
